Experimental data from ChEMBL document CHEMBL2176887, “Chemokine receptor antagonists” (J Med Chem, 2012).

Columns and labels:
[1] = Half life in human; format: ADME, organism-based; conditions: in vivo
[2] = octanol/water
Description: Lipophilicity, log P of the compound

[3] = tested on: Human immunodeficiency virus 1; test: Antiviral activity against Human immunodeficiency virus 1 clinical isolate; format: functional, organism-based
Thromboxane A2 receptor = target: T1, Thromboxane A2 receptor (Homo sapiens, UniProt P21731)
T1 sequence (P21731 whole entry): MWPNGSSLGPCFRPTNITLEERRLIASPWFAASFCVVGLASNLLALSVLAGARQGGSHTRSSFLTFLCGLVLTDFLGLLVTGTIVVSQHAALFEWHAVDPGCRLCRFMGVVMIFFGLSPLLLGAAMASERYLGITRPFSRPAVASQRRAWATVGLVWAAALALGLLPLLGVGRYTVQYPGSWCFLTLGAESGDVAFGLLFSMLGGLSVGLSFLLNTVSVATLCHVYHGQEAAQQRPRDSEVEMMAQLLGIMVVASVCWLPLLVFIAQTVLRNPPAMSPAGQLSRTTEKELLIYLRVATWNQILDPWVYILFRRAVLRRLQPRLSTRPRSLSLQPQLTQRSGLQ
Description: Binding affinity to TXA2 receptor receptor

physchem = conditions: octanol/water
Description: Lipophilicity, log P of the compound

[4] = target: C-C chemokine receptor type 5 (Homo sapiens, UniProt P51681)
[5] = target: T2, C-C chemokine receptor type 3 (Homo sapiens, UniProt P51677); test: Antagonist activity at human CCR3 assessed as inhibition of CCL11-induced calcium influx by cell based assay; format: functional
T2 sequence (P51677 whole entry): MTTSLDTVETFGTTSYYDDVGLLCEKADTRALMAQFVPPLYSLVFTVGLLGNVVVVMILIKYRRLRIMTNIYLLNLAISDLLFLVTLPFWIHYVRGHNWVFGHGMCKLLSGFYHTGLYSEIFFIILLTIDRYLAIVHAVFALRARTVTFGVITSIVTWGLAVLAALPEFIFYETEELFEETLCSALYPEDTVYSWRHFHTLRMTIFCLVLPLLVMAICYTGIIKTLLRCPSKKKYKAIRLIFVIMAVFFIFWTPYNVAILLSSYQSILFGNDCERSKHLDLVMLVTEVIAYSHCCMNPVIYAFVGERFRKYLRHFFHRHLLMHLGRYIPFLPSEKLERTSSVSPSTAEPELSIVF

Histamine H1 receptor [6] = target: T3, Histamine H1 receptor (Homo sapiens, UniProt P35367); test: Antagonist activity at histamine H1 receptor expressed in human PC3 cells inhibition of histamine-induced calcium influx by cell based assay; format: functional, PC-3
[7] = target: T4, Muscarinic acetylcholine receptor M2 (Homo sapiens, UniProt P08172)
T4 sequence (P08172 whole entry): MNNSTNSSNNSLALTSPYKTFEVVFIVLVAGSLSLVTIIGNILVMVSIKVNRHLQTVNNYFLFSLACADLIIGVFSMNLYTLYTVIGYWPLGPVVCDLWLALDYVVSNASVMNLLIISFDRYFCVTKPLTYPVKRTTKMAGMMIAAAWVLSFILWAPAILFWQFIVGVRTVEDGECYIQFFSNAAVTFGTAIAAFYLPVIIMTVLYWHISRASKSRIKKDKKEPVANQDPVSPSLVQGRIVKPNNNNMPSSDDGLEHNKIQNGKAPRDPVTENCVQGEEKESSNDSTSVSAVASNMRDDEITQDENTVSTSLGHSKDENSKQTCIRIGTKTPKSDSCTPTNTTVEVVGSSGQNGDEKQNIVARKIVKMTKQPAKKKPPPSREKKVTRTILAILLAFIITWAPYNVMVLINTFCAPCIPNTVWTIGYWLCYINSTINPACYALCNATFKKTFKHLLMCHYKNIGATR
Description: Binding affinity to muscarinic M2 receptor

[8] = target: T5, Type-1 angiotensin II receptor (Homo sapiens, UniProt P30556)
T5 sequence (P30556 whole entry): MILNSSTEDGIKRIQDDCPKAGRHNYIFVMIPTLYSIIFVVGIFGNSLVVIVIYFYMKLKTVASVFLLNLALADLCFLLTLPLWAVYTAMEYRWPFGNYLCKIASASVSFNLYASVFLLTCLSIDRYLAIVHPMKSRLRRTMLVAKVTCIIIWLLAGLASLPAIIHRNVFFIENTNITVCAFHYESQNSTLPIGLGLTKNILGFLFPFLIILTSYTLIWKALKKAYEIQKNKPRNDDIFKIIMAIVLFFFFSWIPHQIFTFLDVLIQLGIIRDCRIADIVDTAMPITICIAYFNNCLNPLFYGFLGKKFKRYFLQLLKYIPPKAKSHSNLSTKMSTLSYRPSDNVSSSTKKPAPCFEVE
Description: Binding affinity to AT1 receptor

[9] = target: T6, C-C chemokine receptor type 1 (Homo sapiens, UniProt P32246)
T6 sequence (P32246 whole entry): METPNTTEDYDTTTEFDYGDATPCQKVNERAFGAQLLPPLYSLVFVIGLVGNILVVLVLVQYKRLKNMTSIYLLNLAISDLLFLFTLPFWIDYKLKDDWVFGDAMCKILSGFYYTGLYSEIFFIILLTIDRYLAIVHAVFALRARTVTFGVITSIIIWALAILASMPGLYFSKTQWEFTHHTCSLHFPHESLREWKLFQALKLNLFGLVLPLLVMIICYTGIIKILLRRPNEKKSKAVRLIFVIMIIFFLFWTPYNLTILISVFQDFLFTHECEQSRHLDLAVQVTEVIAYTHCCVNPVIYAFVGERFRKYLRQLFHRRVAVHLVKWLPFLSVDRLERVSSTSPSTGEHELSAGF

[10] = target: T2, C-C chemokine receptor type 3
[11] = Half life in dog; format: ADME, organism-based, Canis lupus familiaris; conditions: in vivo
[12] = Oral bioavailability in dog; format: ADME, organism-based, Canis lupus familiaris; conditions: in vivo
[13] = tested on: Human immunodeficiency virus 1; test: Antiviral activity against Human immunodeficiency virus 1 ADA; format: functional, organism-based
[14] = target: T7, C-X-C chemokine receptor type 2 (Homo sapiens, UniProt P25025); test: Antagonist activity at CXCR2 assessed as inhibition of neutrophil CD11b up-regulation; format: functional
T7 sequence (P25025 whole entry): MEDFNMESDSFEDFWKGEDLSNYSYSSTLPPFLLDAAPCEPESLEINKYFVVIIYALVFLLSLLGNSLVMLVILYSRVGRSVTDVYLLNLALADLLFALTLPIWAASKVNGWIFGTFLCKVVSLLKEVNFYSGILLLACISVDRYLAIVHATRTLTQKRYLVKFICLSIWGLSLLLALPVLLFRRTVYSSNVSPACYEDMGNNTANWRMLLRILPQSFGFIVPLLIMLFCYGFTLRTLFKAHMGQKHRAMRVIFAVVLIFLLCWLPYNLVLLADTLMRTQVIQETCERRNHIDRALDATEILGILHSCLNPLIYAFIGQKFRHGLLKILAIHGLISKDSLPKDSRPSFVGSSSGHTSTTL

[15] = target: T7, C-X-C chemokine receptor type 2
Description: Binding affinity to CXCR2

[16] = target: T8, C-X-C chemokine receptor type 1 (Homo sapiens, UniProt P25024)
T8 sequence (P25024 whole entry): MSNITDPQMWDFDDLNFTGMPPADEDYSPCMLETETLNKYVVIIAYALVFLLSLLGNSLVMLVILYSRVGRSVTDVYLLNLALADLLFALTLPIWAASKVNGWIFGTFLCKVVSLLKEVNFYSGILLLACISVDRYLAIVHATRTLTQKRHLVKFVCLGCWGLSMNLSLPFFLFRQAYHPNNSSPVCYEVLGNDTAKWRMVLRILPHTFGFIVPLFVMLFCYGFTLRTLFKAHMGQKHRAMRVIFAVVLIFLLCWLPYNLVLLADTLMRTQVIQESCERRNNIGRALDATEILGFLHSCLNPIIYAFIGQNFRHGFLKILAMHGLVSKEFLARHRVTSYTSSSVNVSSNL
Description: Binding affinity to CXCR1

[17] = target: C-C chemokine receptor type 2 (Homo sapiens, UniProt P41597)
Histamine H1 receptor [18] = target: T3, Histamine H1 receptor; test: Binding affinity to histamine H1 receptor
[19] = tested on: Human immunodeficiency virus 1; test: Antiviral activity against CCR5-tropic HIV1; format: functional
[20] = Half life in beagle dog; format: ADME, organism-based, Canis lupus familiaris; conditions: in vivo
[21] = Oral bioavailability in beagle dog; format: ADME, organism-based, Canis lupus familiaris; conditions: in vivo
[22] = Half life in rat; format: ADME, organism-based; conditions: in vivo
[23] = Oral bioavailability in rat; format: ADME, organism-based; conditions: in vivo
[24] = target: T9, C-C chemokine receptor type 4 (Homo sapiens, UniProt P51679); test: Binding affinity to CCR4
T9 sequence (P51679 whole entry): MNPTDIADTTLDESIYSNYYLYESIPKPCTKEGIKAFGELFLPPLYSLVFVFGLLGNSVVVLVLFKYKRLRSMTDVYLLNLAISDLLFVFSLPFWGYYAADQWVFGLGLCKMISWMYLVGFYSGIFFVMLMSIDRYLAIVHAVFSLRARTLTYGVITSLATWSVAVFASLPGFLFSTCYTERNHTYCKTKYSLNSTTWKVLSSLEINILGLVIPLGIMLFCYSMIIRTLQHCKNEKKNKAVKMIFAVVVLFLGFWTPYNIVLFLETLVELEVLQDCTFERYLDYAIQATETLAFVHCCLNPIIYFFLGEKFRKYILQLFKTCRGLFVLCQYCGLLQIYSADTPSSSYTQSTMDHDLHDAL

[25] = target: T6, C-C chemokine receptor type 1; test: Antagonist activity at CCR1; format: functional
[26] = Oral bioavailability in monkey; format: ADME, organism-based, Macaca mulatta; conditions: rhesus monkey, in vivo
[27] = tested on: Human immunodeficiency virus 1; test: Antiviral activity against R5 tropic Human immunodeficiency virus 1; format: functional, organism-based

C-C chemokine receptor type 5, sequence (P51681 whole entry): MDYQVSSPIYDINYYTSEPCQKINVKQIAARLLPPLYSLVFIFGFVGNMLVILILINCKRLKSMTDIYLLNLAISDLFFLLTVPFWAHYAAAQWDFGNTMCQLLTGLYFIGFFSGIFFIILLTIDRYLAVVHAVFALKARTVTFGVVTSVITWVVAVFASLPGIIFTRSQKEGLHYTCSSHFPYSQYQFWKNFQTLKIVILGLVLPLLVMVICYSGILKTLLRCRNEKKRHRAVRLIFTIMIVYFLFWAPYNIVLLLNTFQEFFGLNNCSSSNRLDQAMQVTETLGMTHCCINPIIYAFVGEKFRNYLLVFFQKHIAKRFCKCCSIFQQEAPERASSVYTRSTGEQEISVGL
T3 sequence (P35367 whole entry): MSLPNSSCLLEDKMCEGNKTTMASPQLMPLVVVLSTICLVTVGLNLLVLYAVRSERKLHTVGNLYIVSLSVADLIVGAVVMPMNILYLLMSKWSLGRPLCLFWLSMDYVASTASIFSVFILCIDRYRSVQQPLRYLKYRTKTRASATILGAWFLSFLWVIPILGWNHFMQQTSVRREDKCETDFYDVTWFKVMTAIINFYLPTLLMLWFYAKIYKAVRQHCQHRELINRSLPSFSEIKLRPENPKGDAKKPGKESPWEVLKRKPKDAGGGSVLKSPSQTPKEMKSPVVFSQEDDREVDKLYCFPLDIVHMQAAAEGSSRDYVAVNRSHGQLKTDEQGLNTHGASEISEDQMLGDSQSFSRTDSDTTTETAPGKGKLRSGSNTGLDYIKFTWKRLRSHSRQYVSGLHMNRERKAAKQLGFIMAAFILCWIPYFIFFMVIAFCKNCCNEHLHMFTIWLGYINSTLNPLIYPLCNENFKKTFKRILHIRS
C-C chemokine receptor type 2, sequence (P41597 whole entry): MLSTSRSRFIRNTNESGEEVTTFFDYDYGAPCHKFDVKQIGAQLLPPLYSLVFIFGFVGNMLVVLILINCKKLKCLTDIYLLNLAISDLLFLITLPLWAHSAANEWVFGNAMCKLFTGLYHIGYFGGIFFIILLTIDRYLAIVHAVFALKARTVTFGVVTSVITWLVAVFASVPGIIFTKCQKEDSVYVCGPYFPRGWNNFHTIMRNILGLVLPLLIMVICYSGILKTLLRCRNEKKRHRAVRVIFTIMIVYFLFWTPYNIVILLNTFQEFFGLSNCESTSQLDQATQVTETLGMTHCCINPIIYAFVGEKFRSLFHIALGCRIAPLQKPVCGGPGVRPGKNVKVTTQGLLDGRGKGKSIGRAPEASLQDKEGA

CCCCOCCOc1ccc(-c2ccc3c(c2)/C=C(/C(=O)Nc2ccc([S@@+]([O-])Cc4cncn4CCC)cc2)CCCN3CC(C)C)cc1 [CENICRIVIROC]
half-life [1]: 35 h | logP [2]: 10.2 | EC50 [3]: 0.061 nM

CN(C)C/C=C1\c2ccccc2COc2ccc(CC(=O)O)cc21
Ki (Thromboxane A2 receptor): > 1000 nM

COC[C@@H](c1ccc(C(F)(F)F)cc1)N1CCN(C2(C)CCN(C(=O)c3c(C)ncnc3C)CC2)C[C@@H]1C [VICRIVIROC]
logP (physchem): 3.6

CCO[C@@H]1Cc2cc(C(F)(F)F)ccc2[C@H]1N1CCN(C2(C)CCN(C(=O)c3c(C)ncnc3C)CC2)C[C@@H]1C [INCB-9471]
logP (physchem): 3.9 | IC50 [4]: 3.1 nM

Cc1ccc(C(=O)N2CCC(=CC(=O)N[C@@H]3CCN(Cc4ccc5cc(F)ccc5c4)C3)CC2)nn1
Ki [5]: 1.8 nM | Ki (Histamine H1 receptor [6]): 47 nM

CC(C)(C)c1ccc(S(=O)(=O)Nc2ccc(Cl)cc2C(=O)c2cc[n+]([O-])cc2)cc1 [VERCIRNON]
logP (physchem): 4.7

CC(C)(O)CC[C@H](C[C@H](O)[C@H](Cc1cccc(F)c1)NC(=O)c1cnc2ccccc2n1)C(N)=O
Ki [7]: 1320 nM | Ki [4]: 66 nM

Cc1noc(NS(=O)(=O)c2ccccc2-c2ccc(-c3ncco3)cc2)c1C
Ki [8]: > 10000 nM

Cc1nnc(C(=O)NC(C)(C)c2nc(C(=O)NCc3ccc(F)cc3)c(O)c(=O)n2C)o1
Ki [9]: 5 nM | logP (physchem): 2.4

CC[C@@H](Nc1c(Nc2cccc(C(=O)N(C)C)c2O)c(=O)c1=O)c1ccc(C)o1 [NAVARIXIN ANHYDROUS]
logP (physchem): 1

NC(=O)c1ccc(CNC(=O)NC[C@@H]2CN(Cc3ccc(Cl)c(Cl)c3)CCO2)cc1
IC50 [10]: 10 nM | logP (physchem): 2.2 | half-life [11]: 2.8 h | bioavailability [12]: 89%

Cc1nnc(C(C)C)n1[C@@H]1C[C@H]2CC[C@@H](C1)N2CC[C@H](NC(=O)C1CCC(F)(F)CC1)c1ccccc1 [MARAVIROC]
logP (physchem): 4.4

CCO/N=C(\c1ccc(Br)cc1)C1CCN(C2(C)CCN(C(=O)c3c(C)cc[n+]([O-])c3C)CC2)CC1 [ANCRIVIROC]
IC50 [13]: 0.6 nM | Ki [4]: 2 nM

O=C(Nc1ccc(Cl)c(S(=O)(=O)N2CCNCC2)c1O)Nc1cccc(F)c1Cl [ELUBRIXIN]
IC50 [14]: 261 nM | logP (physchem): 4.2 | IC50 [15]: 5.1 nM | IC50 [16]: > 10000 nM

Cc1cnc(C(=O)c2ncnc3[nH]ccc23)c(NS(=O)(=O)c2ccc(Cl)c(C(F)(F)F)c2)c1 [ILACIRNON]
IC50 [17]: 5 nM

O=C(O)Cc1ccc2c(c1)/C(=C/Cn1cnc3ccccc31)c1ccccc1CO2
Ki (Thromboxane A2 receptor): 15 nM

O=C(O)Cc1ccc2c(c1)/C(=C/CN1CCCC(Cc3ccccc3)C1)c1ccccc1CO2 (centres undefined)
Ki (Thromboxane A2 receptor): 740 nM | Ki (Histamine H1 receptor [18]): 20 nM

Cc1nnc(C(C)C)n1[C@H]1C[C@H]2CC[C@@H](C1)N2CC[C@H](NC(=O)C1CCC(F)(F)CC1)c1ccccc1 [MARAVIROC]
IC90 [19]: 2 nM

Cc1ccc(S(=O)(=O)NC(=O)N2CCC(N3CCC(Oc4ccc(Cl)c(Cl)c4)CC3)CC2)cc1
logP (physchem): 3.8

COc1cccc2c1c(NS(=O)(=O)c1ccc(Cl)s1)nn2Cc1cccc(NC(=O)CO)c1 [GSK-2239633]
half-life [20]: 2.6 h | bioavailability [21]: 97% | half-life [22]: 2.5 h | bioavailability [23]: 85% | Ki [24]: 10 nM

c1cc(CN2CCCNCCNCCCNCC2)ccc1CN1CCCNCCNCCCNCC1 [PLERIXAFOR]
logP [2]: -0.4

CCOc1ccc(-n2c([C@@H](C)N(Cc3cccnc3)C(=O)Cc3ccc(OC(F)(F)F)cc3)nc3ncccc3c2=O)cc1
logP (physchem): 3.8

NCC1CCCN(C(=O)c2ccc3c(c2)C(C(=O)NC2CCN(C/C4=C/CCCCCCC4)CC2)c2ccccc2O3)C1 (centres undefined)
Ki [9]: 1.8 nM

CO[C@@H]1COCC[C@@H]1NC1CC[C@@](C(=O)N2CCc3ncc(C(F)(F)F)cc3C2)(C(C)C)C1 (some centres undefined)
IC50 [25]: 5 nM

CC(=O)Nc1ccc(O)cc1OC[C@@](C)(O)CNC1CCN(Cc2ccc(Cl)cc2)CC1 [AZD4818]
Ki [9]: 5 nM | logP (physchem): 1.9

CCN(C(=O)Cc1ccc(S(C)(=O)=O)cc1)C1CCN(CC[C@@H](c2cc(F)cc(F)c2)C2CCC(S(C)(=O)=O)CC2)CC1 (some centres undefined) [AZD-5363]
logP (physchem): 3.1 | IC50 [4]: 0.17 nM

CCCCN1C(=O)[C@@H]([C@H](O)C2CCCCC2)NC(=O)C12CCN(Cc1ccc(Oc3ccc(C(=O)O)cc3)cc1)CC2 [APLAVIROC]
bioavailability [26]: 30% | logP (physchem): 3.8 | IC50 [27]: 0.1 nM
